From US20240247015A1, “PHOSPHORUS DERIVATIVES AS NOVEL SOS1 INHIBITORS” (BAYER AKTIENGESELLSCHAFT, priority 2021, published 2024)

Molecular target: interaction of human SOS1 (SOS1) with human K-RasG12C (Homo sapiens (Human), UniProt Q07889)
Test: Biochemical assay: hK-RasG12C interaction assay with hSOS1 (HTRF)
Type: binding
Settings: GST-hK-RasG12C with His-hSOS1, 60 min incubation at 20° C., mean, read-out: K-RasG12C - SOS interaction assay IC50 (mean)
Experimental: Biochemical Assay: hK-RasG12C Interaction Assay with hSOS1 This assay quantifies the equilibrium interaction of human SOS1 (SOS1) with human K-Ras^G12^C (K-RasG12C). Detection of the interaction is achieved by measuring homogenous time-resolved fluorescence resonance energy transfer (HTRF) from antiGST-Europium (FRET donor) bound to GST-K-RasG12C to anti-6His-XL665 bound to His-tagged hSOS1 (FRET-acceptor). The assay buffer containes 5 mM HEPES pH 7.4 (Applichem), 150 mM NaCl (Sigma), […] (Promega), 1 mM DTT (Thermofisher), 0.05% BSA Fraction V, pH 7.0, (ICN Biomedicals), 0.0025% (v/v) Igepal (Sigma) and 100 mM KF (FLUKA). The expression and purification of N-terminally GST-tagged human K-RasG12C (termed GST-hK-RasG12C) and N-terminally His-tagged human SOS1 (termed His10-hSOS1) is described in WO 2019/201848, page 220 line 12-34 and page 222, line 13-25 (expression) and page 222, line 26 to page 223, line 17 (purification). Concentrations of protein batches used are optimized to be within the linear range of the HTRF signal. A Ras working solution is prepared in assay buffer containing typically 10 nM GST-hK-RasG12C and 2 nM antiGST-Eu(K) (Cisbio, France). A SOS1 working solution is prepared in assay buffer containing typically 20 nM His-hSOS1 and 10 nM anti-6His-XL665 (Cisbio, France). An inhibitor control solution is prepared in assay buffer containing nM anti-6His-XL665 without SOS1. Fifty nl of a 100-fold concentrated solution of the test compound in DMSO are transferred into a black microtiter test plate (384 or 1536, Greiner Bio-One, Germany). For this, either a Hummingbird liquid handler (Digilab, MA, USA) or an Echo acoustic system (Labcyte, CA, USA) is used. All steps of the assay are performed at 20° C. A volume of 2.5 μl of the Ras working solution is added to all wells of the test plate using a Multidrop dispenser (Thermo Labsystems). After 2 min preincubation, 2.5 μl of the SOS1 working solution are added to all wells except for those wells at the side of the test plate that are subsequently filled with 2.5 μl of the inhibitor control solution. After 60 min incubation the fluorescence is measured with a Pherastar (BMG, Germany) using the HTRF module (excitation 337 nm, emission 1: 620 nm, emission 2: 665 nm). The ratiometric data (emission 2 divided by emission 1) are normalized using the controls (DMSO=0% inhibition, inhibition control wells with inhibitor control solution=100% inhibition). Compounds are tested in duplicates at up to 11 concentrations (for 20 μM, 5,7 μM, 1,6 μM, 0.47 μM, 0.13 μM, 38 nM, 11 nM, 3.1 nM, 0.89 nM, 0.25 nM and 0.073 nM). IC50 values are calculated by 4-Parameter fitting using a commercial software package (Genedata Screener, Switzerland).

Chain of interaction of human SOS1 (SOS1) with human K-RasG12C (Q07889 564-1049 limits assumed): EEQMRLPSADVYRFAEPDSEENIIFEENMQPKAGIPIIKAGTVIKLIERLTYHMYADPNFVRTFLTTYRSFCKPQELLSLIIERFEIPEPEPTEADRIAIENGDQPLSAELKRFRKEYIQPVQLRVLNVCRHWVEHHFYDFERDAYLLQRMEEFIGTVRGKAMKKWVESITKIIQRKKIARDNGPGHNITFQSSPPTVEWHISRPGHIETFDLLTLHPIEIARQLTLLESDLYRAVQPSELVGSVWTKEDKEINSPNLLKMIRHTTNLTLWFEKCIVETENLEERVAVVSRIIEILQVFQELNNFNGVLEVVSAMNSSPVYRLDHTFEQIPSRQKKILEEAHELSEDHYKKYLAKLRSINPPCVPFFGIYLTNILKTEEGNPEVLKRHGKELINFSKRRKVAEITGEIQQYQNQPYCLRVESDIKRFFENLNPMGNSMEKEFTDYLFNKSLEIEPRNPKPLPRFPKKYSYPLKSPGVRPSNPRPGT

| IC50 [nM] | SMILES |
| --- | --- |
| 24.5 | Cc1nc(N[C@H](C)c2cccc(C(F)(F)C(C)O)c2F)c2cc(P(C)(=O)C(C)C)ncc2n1 (single isomer, unassigned) [Example 82, (2R*)-1,1-difluoro-1-{2-fluoro-3-[(1R)-1-({2-methyl-6-[methyl(propan-2-yl)phosphoryl]pyrido[3,4-d]pyrimidin-4-yl}amino)ethyl]phenyl}propan-2-ol] |
| 31 | Cc1nc(N[C@H](C)c2cccc(C(F)(F)C(C)O)c2F)c2cc(P(C)(=O)C(C)C)ncc2n1 (single isomer, unassigned) [Example 83, (2R*)-1,1-difluoro-1-{2-fluoro-3-[(1R)-1-({2-methyl-6-[methyl(propan-2-yl)phosphoryl]pyrido[3,4-d]pyrimidin-4-yl}amino)ethyl]phenyl}propan-2-ol] |
| 24.1 | Cc1nc(N[C@H](C)c2cccc(C(F)(F)C(C)O)c2F)c2cc(P(C)(=O)C(C)C)ncc2n1 (single isomer, unassigned) [Example 84, (2R*)-1,1-difluoro-1-{2-fluoro-3-[(1R)-1-({2-methyl-6-[methyl(propan-2-yl)phosphoryl]pyrido[3,4-d]pyrimidin-4-yl}amino)ethyl]phenyl}propan-2-ol] |
| 2.86 | Cc1nc(N[C@H](C)c2cccc(C(F)(F)C(O)C(C)C)c2F)c2cc(P(C)(C)=O)ncc2n1 (single isomer, unassigned) [Example 87, (2R*)-1-{3-[(1R)-1-{[6-(dimethylphosphoryl)-2-methylpyrido[3,4-d]pyrimidin-4-yl]amino}ethyl]-2-fluorophenyl}-1,1-difluoro-3-methylbutan-2-ol] |
| 6.06 | CCC(O)C(F)(F)c1cccc([C@@H](C)Nc2nc(C)nc3cnc(P(C)(C)=O)cc23)c1F (single isomer, unassigned) [Example 89, (2R*)-1-{3-[(1R)-1-{[6-(dimethylphosphoryl)-2-methylpyrido[3,4-d]pyrimidin-4-yl]amino}ethyl]-2-fluorophenyl}-1,1-difluorobutan-2-ol] |
| 21.5 | Cc1nc(N[C@H](C)c2cccc(C(F)(F)C(C)O)c2F)c2cc(P3(=O)CCCC3)ncc2n1 (single isomer, unassigned) [Example 111, 1-(4-{[(1R)-1-{3-[(2R*)-1,1-difluoro-2-hydroxypropyl]-2-fluorophenyl}ethyl]amino}-2-methylpyrido[3,4-d]pyrimidin-6-yl)-1lambda^5-phospholan-1-one] |
| 11.2 | Cc1nc(N[C@H](C)c2cccc(C(F)(F)C(C)O)c2F)c2cc(P3(=O)CCCC3)ncc2n1 (single isomer, unassigned) [Example 112, 1-(4-{[(1R)-1-{3-[(2R*)-1,1-difluoro-2-hydroxypropyl]-2-fluorophenyl}ethyl]amino}-2-methylpyrido[3,4-d]pyrimidin-6-yl)-1lambda^5-phospholan-1-one] |
| 80.3 | Cc1nc(N[C@H](C)c2cccc(C(F)F)c2F)c2cc(P(C)(=O)C(C)C)ncc2n1 (single isomer, unassigned) [Example 115] |
| 57.6 | Cc1nc(N[C@H](C)c2cccc(C(F)F)c2F)c2cc(P(C)(=O)C(C)C)ncc2n1 (single isomer, unassigned) [Example 116] |
| 56.5 | CCP(C)(=O)c1cc2c(N[C@H](C)c3cccc(C(F)F)c3F)nc(C)nc2cn1 (single isomer, unassigned) [Example 118] |
| 42.9 | CCP(C)(=O)c1cc2c(N[C@H](C)c3cccc(C(F)F)c3F)nc(C)nc2cn1 (single isomer, unassigned) [Example 119] |
| 11.5 | CCP(C)(=O)c1cc2c(N[C@H](C)c3cccc(C(F)(F)CO)c3F)nc(C)nc2cn1 (single isomer, unassigned) [Example 131] |
| 11.7 | CCP(C)(=O)c1cc2c(N[C@H](C)c3cccc(C(F)(F)CO)c3F)nc(C)nc2cn1 (single isomer, unassigned) [Example 132] |
| 25.2 | Cc1nc(N[C@H](C)c2cccc(C(F)(F)CO)c2F)c2cc(P(C)(=O)C(C)C)ncc2n1 (single isomer, unassigned) [Example 134] |
| 17 | Cc1nc(N[C@H](C)c2cccc(C(F)(F)CO)c2F)c2cc(P(C)(=O)C(C)C)ncc2n1 (single isomer, unassigned) [Example 135] |
| 36.6 | Cc1nc(N[C@H](C)c2cccc(C(F)(F)C(C)O)c2F)c2cc(P(C)(C)=O)ncc2n1 (stereo in doubt) [Example 86, (2R*)-1-{3-[(1R)-1-{[6-(dimethylphosphoryl)-2-methylpyrido[3,4-d]pyrimidin-4-yl]amino}ethyl]-2-fluorophenyl}-1,1-difluoropropan-2-ol] |
| 26.6 | CCP(=O)(CC)c1cc2c(N[C@H](C)c3cccc(C(F)(F)C(C)O)c3F)nc(C)nc2cn1 (stereo in doubt) [Example 90, (2R*)-1-{3-[(1R)-1-{[6-(diethylphosphoryl)-2-methylpyrido[3,4-d]pyrimidin-4-yl]amino}ethyl]-2-fluorophenyl}-1,1-difluoropropan-2-ol] |
| 38.9 | Cc1nc(N[C@H](C)c2cccc(C(F)(F)C(O)C(C)(C)C)c2F)c2cc(P(C)(C)=O)ncc2n1 (stereo in doubt) [Example 136, (2R*)-1-{3-[(1R)-1-{[6-(dimethylphosphoryl)-2-methylpyrido[3,4-d]pyrimidin-4-yl]amino}ethyl]-2-fluorophenyl}-1,1-difluoro-3,3-dimethylbutan-2-ol] |
| 20.6 | Cc1nc(N[C@H](C)c2cccc(C(F)(F)F)c2C)c2cc(P(C)(C)=O)ncc2n1 [Example 1, 6-(dimethylphosphoryl)-2-methyl-N-{(1R)-1-[2-methyl-3-(trifluoromethyl)phenyl]ethyl}pyrido[3,4-d]pyrimidin-4-amine] |
| 50.8 | Cc1nc(N[C@H](C)c2cccc(C(F)F)c2F)c2cc(P(C)(C)=O)ncc2n1 [Example 2, N-{(1R)-1-[3-(difluoromethyl)-2-fluorophenyl]ethyl}-6-(dimethylphosphoryl)-2-methylpyrido[3,4-d]pyrimidin-4-amine] |
| 19.1 | Cc1nc(N[C@H](C)c2cccc(C(F)(F)C(C)(C)O)c2F)c2cc(P(C)(C)=O)ncc2n1 [Example 3, 1-{3-[(1R)-1-{[6-(dimethylphosphoryl)-2-methylpyrido[3,4-d]pyrimidin-4-yl]amino}ethyl]-2-fluorophenyl}-1,1-difluoro-2-methylpropan-2-ol] |
| 12.8 | Cc1nc(N[C@H](C)c2cccc(C(F)(F)C(C)(C)O)c2F)c2cc(P3(=O)CCCC3)ncc2n1 [Example 4, 1-[4-({(1R)-1-[3-(1,1-difluoro-2-hydroxy-2-methylpropyl)-2-fluorophenyl]ethyl}amino)-2-methylpyrido[3,4-d]pyrimidin-6-yl]-1lambda^5-phospholan-1-one] |
| 261 | Cc1nc(N[C@H](C)c2cccc(C(F)(F)F)c2C)c2cc(P3(=O)CCN(Cc4ccccc4)CC3)ncc2n1 [Example 5, 1-benzyl-4-[2-methyl-4-({(1R)-1-[2-methyl-3-(trifluoromethyl)phenyl]ethyl}amino)pyrido[3,4-d]pyrimidin-6-yl]-1,4lambda^5-azaphosphinan-4-one] |
| 6.24 | CC(=O)N1CCP(=O)(c2cc3c(N[C@H](C)c4cccc(C(F)(F)F)c4C)nc(C)nc3cn2)CC1 [Example 7, 1-acetyl-4-[2-methyl-4-({(1R)-1-[2-methyl-3-(trifluoromethyl)phenyl]ethyl}amino)pyrido[3,4-d]pyrimidin-6-yl]-1,4lambda^5-azaphosphinan-4-one] |
| 94 | Cc1nc(N[C@H](C)c2cccc(C(F)F)c2F)c2cc(P3(=O)CCN(Cc4ccccc4)CC3)ncc2n1 [Example 8, 1-benzyl-4-[4-({(1R)-1-[3-(difluoromethyl)-2-fluorophenyl]ethyl}amino)-2-methylpyrido[3,4-d]pyrimidin-6-yl]-1,4lambda^5-azaphosphinan-4-one] |
| 22.3 | Cc1nc(N[C@H](C)c2cccc(C(F)F)c2F)c2cc(P3(=O)CCNCC3)ncc2n1 [Example 9, 4-[4-({(1R)-1-[3-(difluoromethyl)-2-fluorophenyl]ethyl}amino)-2-methylpyrido[3,4-d]pyrimidin-6-yl]-1,4lambda^5-azaphosphinan-4-one] |
